Assay results taken from patent publication US20230011571A1, “SMALL MOLECULE FURIN INHIBITORS FOR TREATING INFECTIOUS DISEASES” (BP Asset V, Inc., priority 2019, published 2023).

Key:
Format in all cases: cell-based
[1] = system: Chikungunya virus (CHIKV); assay: microbe, parasite or virus in culture; conditions: Chikungunya virus, Vero, 48 h, read-out: Percent viral inhibition CHKV
dengue virus (DENV) = assay: microbe, parasite or virus in culture; conditions: Dengue virus, Vero, 120 h, read-out: Percent viral inhibition DENY
Marburg virus (MARV) = assay: organism not typed; conditions: Vero, 72 h, read-out: Percent viral inhibition MARV

Row | Compound | inhibition at 1 µM [1] [%] | inhibition at 1 µM (dengue virus (DENV)) [%] | inhibition at 1 µM (Marburg virus (MARV)) [%]
1 | COC(=O)NCC1CCN(Cc2cc(Oc3cnc(N4CCN(C)CC4)nc3)nc(-c3cc(Cl)cc(Cl)c3)c2)CC1 [Example 63, methyl((1-((2-(3,5-dichlorophenyl)-6-((2-(4-methylpiperazin-1-yl)pyrimidin-5-yl)oxy)pyridin-4-yl)methyl)piperidin-4-yl)methyl)carbamate] | 0 | 2.35 | 14.7
2 | O=C(O)CC1CCN(Cc2cc(Oc3ccc(N4C[C@@H]5C[C@H]4CN5)nc3)nc(-c3cc(Cl)cc(Cl)c3)c2)CC1 [Example 187, 2-(1-((2-((6-((1S,4S)-2,5-diazabicyclo[2.2.1]heptan-2-yl)pyridin-3-yl)oxy)-6-(3,5-dichlorophenyl)pyridin-4-yl)methyl)piperidin-4-yl) acetic acid] | 22.4 | 84 | 24.1
3 | COC(=O)NCC1CCN(Cc2cc(Oc3cnc(N4CCN(CCO)CC4)nc3)nc(-c3cc(Cl)cc(Cl)c3)c2)CC1 [Example 311, methyl((1-((2-(3,5-dichlorophenyl)-6-((2-(4-(2-hydroxyethyl)piperazin-1-yl)pyrimidin-5-yl)oxy)pyridin-4-yl)methyl)piperidin-4-yl)methyl)carbamate] | 8.41 | 0 | 17.5
4 | CNC1CCN(c2ncc(Oc3cc(CN4CCC(CC(=O)O)CC4)cc(-c4cc(Cl)cc(Cl)c4)n3)cn2)C1 (stereo not drawn) [Example 152, 2-(1-((2-(3,5-dichlorophenyl)-6-((2-(3-(methylamino)pyrrolidin-1-yl)pyrimidin-5-yl)oxy)pyridin-4-yl)methyl)piperidin-4-yl)acetic acid] | 16.3 | 19 | 44.1
5 | CCC(=O)NCC1CCN(Cc2cc(Oc3cnc(N4CCN(CCC(C)C(=O)O)CC4)nc3)nc(-c3cc(Cl)cc(Cl)c3)c2)CC1 (stereo not drawn) [Example 59, 4-(4-(5-((6-(3,5-dichlorophenyl)-4-((4-(propionamidomethyl)piperidin-1-yl)methyl)pyridin-2-yl)oxy)pyrimidin-2-yl)piperazin-1-yl)-2-methylbutanoic acid] | 35.1 | 53.7 | 57.5
6 | CC(=O)NCC1CCN(Cc2cc(Oc3cnc(N4CCN(CCC(N)=O)CC4)cn3)nc(-c3cc(Cl)cc(Cl)c3)c2)CC1 [Example 391] | 14 | 51.4 | 35.4
7 | COC1CN(C)CCN(c2ncc(Oc3cc(CN4CCC(CC(=O)O)CC4)cc(-c4cc(Cl)cc(Cl)c4)n3)cn2)C1 (stereo not drawn) [Example 144, 2-(1-((2-(3,5-dichlorophenyl)-6-((2-(6-methoxy-4-methyl-1,4-diazepan-1-yl)pyrimidin-5-yl)oxy)pyridin-4-yl)methyl)piperidin-4-yl)acetic acid] | 32.6 | 35 | 56.6
8 | CC(=O)NCC1CCN(Cc2cc(Oc3ccc(N4CCN(CCCS(C)(=O)=O)CC4)nc3)nc(-c3cc(Cl)cc(Cl)c3)c2)CC1 [Example 251, N-((1-((2-(3,5-dichlorophenyl)-6-((6-(4-(3-(methylsulfonyl)propyl)piperazin-1-yl)pyridin-3-yl)oxy)pyridin-4-yl)methyl)piperidin-4-yl)methyl)acetamide] | 0 | 45.5 | 38.9
9 | O=C(O)CC1CCN(Cc2cc(Oc3cnc(N4CCN5CCC4C5)cn3)nc(-c3cc(Cl)cc(Cl)c3)c2)CC1 (stereo not drawn) [Example 348, 2-(1-((2-((5-(1,4-diazabicyclo[3.2.1]octan-4-yl)pyrazin-2-yl)oxy)-6-(3,5-dichlorophenyl)pyridin-4-yl)methyl)piperidin-4-yl)acetic acid] | 35.8 | 55.8 | 46.6
10 | CC(=O)NCC1CCN(Cc2cc(Oc3ccc(N4CCCN(CCC(=O)O)CC4)nc3)nc(-c3cc(Cl)cc(Cl)c3)c2)CC1 [Example 190, 3-(4-(5-((4-((4-(acetamidomethyl)piperidin-1-yl)methyl)-6-(3,5-dichlorophenyl)pyridin-2-yl)oxy)pyridin-2-yl)-1,4-diazepan-1-yl)propanoic acid] | 2.11 | 41.8 | 44.8
11 | O=C(O)CC1CCN(Cc2cc(Oc3cnc(N4CCNCC4)nc3)nc(-c3cc(Cl)cc(Cl)c3)c2)CC1 [Example 206, 2-(1-((2-(3,5-dichlorophenyl)-6-((2-(piperazin-1-yl)pyrimidin-5-yl)oxy)pyridin-4-yl)methyl)piperidin-4-yl)acetic acid] | 34.4 | 29.3 | 50.8
12 | CN1CCN(c2ncc(Oc3cc(CN4CCC(OCC(=O)O)C4)cc(-c4cc(Cl)cc(Cl)c4)n3)cn2)CC1 (stereo not drawn) [Example 128, 2-((1-((2-(3,5-dichlorophenyl)-6-((2-(4-methylpiperazin-1-yl)pyrimidin-5-yl)oxy)pyridin-4-yl)methyl)pyrrolidin-3-yl)oxy)acetic acid] | 3.67 | 7.97 | 51.4
13 | C[C@@H](CC1CCN(Cc2cc(Oc3ccc(N4CCN(C)CC4)nn3)nc(-c3cc(Cl)cc(Cl)c3)c2)CC1)C(=O)O [Example 365, (S)-3-(1-((2-(3,5-dichlorophenyl)-6-((6-(4-methylpiperazin-1-yl)pyridazin-3-yl)oxy)pyridin-4-yl)methyl)piperidin-4-yl)-2-methylpropanoic acid] | 0 | 32.4 | 17.4
14 | CC(=O)NCC1CCN(Cc2cc(Oc3ccc(N4CCN(CC5(CO)CC5)CC4)nc3)nc(-c3cc(Cl)cc(Cl)c3)c2)CC1 [Example 34, N-((1-((2-(3,5-dichlorophenyl)-6-((6-(4-((1-(hydroxymethyl)cyclopropyl)methyl)piperazin-1-yl)pyridin-3-yl)oxy)pyridin-4-yl)methyl)piperidin-4-yl)methyl)acetamide] | 1.42 | 46.8 | 30.3
15 | CNC(=O)NCC1CCN(Cc2cc(Oc3cnc(N4CCN(C5CC(C(=O)O)C5)CC4)nc3)nc(-c3cc(Cl)cc(Cl)c3)c2)CC1 (stereo not drawn) [Example 221, 3-(4-(5-((6-(3,5-dichlorophenyl)-4-((4-((3-methylureido)methyl)piperidin-1-yl)methyl)pyridin-2-yl)oxy)pyrimidin-2-yl)piperazin-1-yl) cyclobutanecarboxylic acid] | 44.4 | 25.9 | 63.2
16 | O=C(O)CC1CCN(Cc2cc(Oc3cnc(N4CCN5CCC4C5)nc3)nc(-c3cc(Cl)cc(Cl)c3)c2)CC1 (stereo not drawn) [Example 334, 2-(1-((2-((2-(1,4-diazabicyclo[3.2.1]octan-4-yl)pyrimidin-5-yl)oxy)-6-(3,5-dichlorophenyl)pyridin-4-yl)methyl)piperidin-4-yl)acetic acid] | 29.6 | 20.8 | 41.4
17 | O=C(O)CC1CCN(Cc2cc(Oc3cnc(N4CCN(CCC5(O)CC5)CC4)nc3)nc(-c3cc(Cl)cc(Cl)c3)c2)CC1 [Example 278, 2-(1-((2-(3,5-dichlorophenyl)-6-((2-(4-(2-(1-hydroxycyclopropyl)ethyl)piperazin-1-yl)pyrimidin-5-yl)oxy)pyridin-4-yl)methyl)piperidin-4-yl)acetic acid] | 45.6 | 45.5 | 81.7
18 | CC(=O)NCC1CCN(Cc2cc(Oc3cnc(N4CCN(CCC(N)=O)CC4)nc3)nc(-c3cc(Cl)cc(Cl)c3)c2)CC1 [Example 88, 3-(4-(5-((4-((4-(acetamidomethyl)piperidin-1-yl)methyl)-6-(3,5-dichlorophenyl)pyridin-2-yl)oxy)pyrimidin-2-yl)piperazin-1-yl)propanamide] | 10.9 | 54.6 | 58.6
19 | CN1CCN(c2ccc(Oc3cc(CN4CC[C@@H]5[C@H](CC4)[C@H]5C(=O)O)cc(-c4cc(Cl)cc(Cl)c4)n3)cn2)CC1 [Example 136, (1R,7S,8r)-4-((2-(3,5-dichlorophenyl)-6-((6-(4-methylpiperazin-1-yl)pyridin-3-yl)oxy)pyridin-4-yl)methyl)-4-azabicyclo[5.1.0]octane-8-carboxylic acid] | 39.8 | 18 | 57.8
20 | CN1CCN(c2ncc(Oc3cc(CN4CCC(OCC(=O)O)CC4)cc(-c4cc(Cl)cc(Cl)c4)n3)cn2)CC1 [Example 53, 2-((1-((2-(3,5-dichlorophenyl)-6-((2-(4-methylpiperazin-1-yl)pyrimidin-5-yl)oxy)pyridin-4-yl)methyl)piperidin-4-yl)oxy)acetic acid] | 30 | 42.5 | 53.5
21 | CN1CCN(c2ncc(Oc3cc(CN4CCC(CCO)CC4)cc(-c4cc(Cl)cc(Cl)c4)n3)cn2)CC1 [Example 52, 2-(1-((2-(3,5-dichlorophenyl)-6-((2-(4-methylpiperazin-1-yl)pyrimidin-5-yl)oxy)pyridin-4-yl)methyl)piperidin-4-yl)ethanol] | 26.3 | 45.6 | 29.9
22 | CNC(=O)NCC1CCN(Cc2cc(Oc3cnc(N4CCN(CCC(=O)O)CC4)nc3)nc(-c3cc(Cl)cc(Cl)c3)c2)CC1 [Example 256, 3-(4-(5-((6-(3,5-dichlorophenyl)-4-((4-((3-methylureido)methyl)piperidin-1-yl)methyl)pyridin-2-yl)oxy)pyrimidin-2-yl)piperazin-1-yl)propanoic acid] | 30.4 | 47.2 | 49.3
23 | CC(C)(O)CCN1CCN(c2ncc(Oc3cc(CN4CCC(CC(=O)O)CC4)cc(-c4cc(Cl)cc(Cl)c4)n3)cn2)CC1 [Example 279, 2-(1-((2-(3,5-dichlorophenyl)-6-((2-(4-(3-hydroxy-3-methylbutyl)piperazin-1-yl)pyrimidin-5-yl)oxy)pyridin-4-yl)methyl)piperidin-4-yl)acetic acid] | 37.8 | 27.5 | 18.8
